Source: article PMC5750218, “Protein-inspired antibiotics active against vancomycin- and daptomycin-resistant bacteria” (Nature Communications, 2018)
In brackets after ≈: the same amount, converted by molar mass. Where two headings read alike, the source gives them in different places.

Key:
[1] = system: S. aureus ATCC 43300 MRSA; assay: microbe, parasite or virus in culture; assay type: cell-based, Staphylococcus aureus; details: Staphylococcus aureus, 24 h, read-out: MIC S. aureus ATCC 43300 MRSA
Protocol: (§1) The compounds, along with standard antibiotics were serially diluted twofold across the wells of 96-well non-binding surface (NBS) polystyrene plates (Corning 3641). […] Standards ranged from 64 to 0.03 µg mL^−1 and compounds from 8 to 0.003 µg mL^−1 with final assay volumes of 100 µL per well. Gram-positive bacteria were cultured in Mueller Hinton broth (MHB) (Bactolaboratories, Cat. no. 211443) at 37 °C overnight. A sample of each culture was then diluted 40-fold in fresh MHB and incubated at 37 °C for 2–3 h. The resultant mid-log phase cultures were added to the compound-containing 96-well plates to give a final cell density of 5 × 10^5 colony forming unit (CFU) mL^−1. All the plates were covered and incubated at 37 °C for 24 h. MICs were the lowest concentration showing no visible growth.

[2] = system: S. pneumoniae ATCC 33400; assay: microbe, parasite or virus in culture; assay type: cell-based, Streptococcus pneumoniae; details: Streptococcus pneumoniae, ATCC33400, 24 h, read-out: MIC S. pneumoniae ATCC 33400
Protocol: as §1

[3] = system: S. pneumoniae ATCC 700677 MDR; assay: microbe, parasite or virus in culture; assay type: cell-based, Streptococcus pneumoniae; details: Streptococcus pneumoniae, ATCC700677, 24 h, read-out: MIC S. pneumoniae ATCC 700677 MDR
Protocol: as §1

[4] = Haemolysis assay; assay type: cell-based; details: human; for hemolysis at 3 h: whole blood
[5] = system: S. aureus ATCC 43300; assay: Membrane permeability assay (propidium iodide); assay type: cell-based, Staphylococcus aureus; details: for Fold higher propidium iodide fluorescence than oritavancin: 16 µg mL^−1, MRSA ATCC 43300
Protocol: To evaluate the ability of the compounds to disrupt the cytoplasmic membrane integrity, the membrane impermeable fluorescent DNA intercalating dye propidium iodide (PI) was used. Early exponential phase cells were pelleted and washed twice in 10 mM HEPES buffer (pH 7.4) containing 50 µg mL^−1 of CaCl2 and 5 mM glucose, and then re-suspended in the same buffer (4 × 10^8 CFU mL^−1). Cell suspension was added to a 384-well black walled polystyrene plate (Corning, CLS3573) containing compounds, giving a final concentration of 16 µg mL^−1. After 1 h incubation at 37 °C, 5 µg mL^−1 of PI was added and fluorescence was monitored for 90 min using a Tecan Infinite® m1000 Pro Multi-mode reader (excitation/emission 535/620 nm). Data were corrected by subtraction of fluorescence signal arising from untreated cells in the presence of PI. […] Each sample was tested in quadruplicate and independent assays were performed twice showing similar results. Data was analysed and presented using Prism software.

[6] = in vitro; details: human, 50% human plasma (pooled, sodium heparin) in PBS, pH 7.4
Protocol: (§2) Briefly, test compounds (20 μM) were prepared from a 0.2 mM H2O stock solution (40 μL in 400 μL assay volume) except eucatropine, which was 300 μg mL^−1 in 100% DMSO (10 μL in 400 μL assay volume equivalent to 23 μM). The precipitating solution was prepared by adding 5 μL of 10 mM carbutamide in DMSO to 100 mL acetonitrile (final concentration: 135.5 ng mL^−1 or 0.5 μM carbutamide). The human plasma sample (pooled normal human plasma sodium heparin anticoagulant, 2 µL, Cat No.: [sequence], BioReclamation) and phosphate-buffer saline (PBS, pH 7.4 isotonic) were pre-heated at 37 °C for 30 min. 40 μL of test compounds (0.2 mM) were added to protein-low binding Eppendorf tubes, 160 μL of buffer was added, and the mixture was vortexed. For eucatropine, 10 μL of eucatropine (300 μg mL^−1) was added to a protein-low binding Eppendorf tube, 190 μL of buffer was added, and the mixture was vortexed. In each case, 200 μL of plasma was added and the resultant mixture vortexed. For the initial time point (reaction time t = 0 h), 50 μL of sample was immediately transferred into a protein-low binding Eppendorf tube and quenched with 150 μL of the ice-cold precipitating solution, followed by vortexing and subsequent storage at 4 °C. For the remaining time points, the plasma solution was incubated and shaken (150 rpm) at 37 °C. 50 μL aliquots were collected at time points of 0, 1, 3, 6 and 24 h and quenched with 150 μL the ice-cold precipitating solution. All samples were placed in a 4 °C fridge for 30 min then centrifuged at 14,000 × g for 8 min at 4 °C. The supernatant (100 μL) was transferred to a glass vial insert and stored at 4 °C until LC-MS/MS analysis. The percentage of test compounds remaining at the individual time points relative to sample at time point 0 h were reported.

[7] = system: Bacillus subtilis ATCC 6633; assay: microbe, parasite or virus in culture; assay type: cell-based
[8] = 37 °C, 20 µM
Protocol: as §2

Molecule `CCCCCCCCCC(=O)N[C@@H](Cc1c[nH]c2ccccc12)C(=O)N[C@H](CC(N)=O)C(=O)N[C@@H](CC(=O)O)C(=O)N[C@@H]1C(=O)NCC(=O)N[C@@H](CCCN)C(=O)N[C@@H](CC(=O)O)C(=O)N[C@H](C)C(=O)N[C@@H](CC(=O)O)C(=O)NCC(=O)N[C@H](CO)C(=O)N[C@@H]([C@H](C)CC(=O)O)C(=O)N[C@@H](CC(=O)c2ccccc2N)C(=O)O[C@@H]1C` [Compound 4, Daptomycin] has an MIC ([1]; 1% Survanta) of over 8 µg/mL, an MIC ([1]; 5% Survanta) of over 8 µg/mL and an MIC ([1]; no added Survanta) of 2 µg/mL (≈ 1.23 µM). It also gave an MIC ([2]; 1% Survanta) of over 8 µg/mL, an MIC ([2]; 5% Survanta) of over 8 µg/mL and an MIC ([2]; no added Survanta) of 2 to 4 µg/mL (≈ 1.23 to 2.47 µM). It also gave an MIC ([3]; 1% Survanta) of over 8 µg/mL, an MIC ([3]; 5% Survanta) of over 8 µg/mL and an MIC ([3]; no added Survanta) of 4 µg/mL (≈ 2.47 µM). It also gave a hemolysis at 3 h, 25 µg mL-1 ([4]; % Human Whole Blood Haemolysis) of 0%, a hemolysis at 3 h, 50 µg mL-1 ([4]; % Human Whole Blood Haemolysis) of 0.4% and a hemolysis at 3 h, 100 µg mL-1 ([4]; % Human Whole Blood Haemolysis) of 0%. The hemolysis at 3 h, 200 µg mL-1 ([4]; % Human Whole Blood Haemolysis) was 0.3%, the hemolysis at 3 h, 400 µg mL-1 ([4]; % Human Whole Blood Haemolysis) was 0.9% and the hemolysis at 3 h, 800 µg mL-1 ([4]; % Human Whole Blood Haemolysis) was 0.3%. For the same molecule, the hemolysis at 3 h, 1600 µg mL-1 ([4]; % Human Whole Blood Haemolysis) was 1.6%, the “Fold higher propidium iodide fluorescence than oritavancin” value ([5]; listed as Daptomycin) was 4–6 fold and the “Fold higher propidium iodide fluorescence than oritavancin” value ([5]; listed as daptomycin) was “approximately 6 fold”.
In the case of `CCCCCCCCCCCCCC(=O)N[C@@H](CCCCN)C(=O)N[C@@H](CCCCN)C(=O)N[C@@H](CCCCN)C(=O)N[C@@H](CCCCNC(=O)[C@H]1NC(=O)[C@H]2NC(=O)[C@H](NC(=O)[C@@H]3NC(=O)[C@H](CC(N)=O)NC(=O)[C@H](NC(=O)[C@@H](CC(C)C)NC)[C@H](O)c4ccc(c(Cl)c4)Oc4cc3cc(c4O[C@@H]3O[C@H](CO)[C@@H](O)[C@H](O)[C@H]3O[C@H]3C[C@](C)(N)[C@H](O)[C@H](C)O3)Oc3ccc(cc3Cl)[C@H]2O)c2ccc(O)c(c2)-c2c(O)cc(O)cc21)C(=O)O` [Compound 17, nC13CO-KKK-K(Vancomycin)-OH], the remaining at 1 h, 20 µM [6] is reported as 79%, the remaining at 3 h, 20 µM [6] is reported as 79% and the remaining at 6 h, 20 µM [6] is reported as 62%. For the same molecule, the remaining at 24 h, 20 µM [6] was 66%, the “Ac2Kaa concentration required to neutralise MIC activity” value ([7]; ATCC 6633, 48 h) was 400 µg/mL and the MIC ([7]; ATCC 6633, 48 h) was at most 0.004 µg/mL. The “Molar excess of Ac2Kaa ligand required to antagonise antibacterial activity” value ([7]; [ligand]/[antibiotic], B. subtilis ATCC 6633, 24 h) was 29,472, the hemolysis at 3 h ([4]; 25 µg mL-1) was 0.15% and the hemolysis at 3 h ([4]; 50 µg mL-1) was 0.75%. The hemolysis at 3 h ([4]; 100 µg mL-1) was 0.65%, the hemolysis at 3 h ([4]; 200 µg mL-1) was 0.85% and the hemolysis at 3 h ([4]; 400 µg mL-1) was 0.5%. The hemolysis at 3 h ([4]; 800 µg mL-1) was 1%, the hemolysis at 3 h ([4]; 1600 µg mL-1) was 1.55% and the “% compound remaining after incubation in 50% human plasma, 0h” value [8] was 100%. For the same molecule, the “Membrane permeabilisation (propidium iodide fluorescence)” value [5] was “comparable fluorescence intensity to oritavancin”.
